These compounds were tested against HLA-DQ2 (Homo sapiens, UniProt P01909+P01920) (assay: Inhibition of IL-2 secretion by TCR transductants stimulated by α-gliadin peptides presented by HLA-DQ2 expressing K562 cells (ELISA)). Settings: inhibition of IL-2 secretion at 200 uM; tested as trans racemate unless otherwise noted; lines naming several Examples = stereoisomer mixture of those Examples.
Assay type: cell-based
Method: Three commercially available analogues of the DQ2 binding molecules of the invention were tested for their ability to inhibit stimulation of T cell receptor (TCR) transductants in the presence of HLA-DQ2 expressing cells presenting known α-gliadin epitopes.
Using a previously published in vitro assay (Ostrov D, et al. Methyldopa blocks MHC class II binding to disease specific antigens in autoimmune diabetes. J Clin Invest. 2018:128 (5)) the ability of these DQ2 binding analogues to inhibit interleukin-2 (IL-2) secretion by TCR transductants stimulated by α-gliadin peptides presented by HLA-DQ2 was determined. Individual TCR transductants (recognizing a I-gliadin or a II-gliadin) were cultured with a gliadin peptide plus the small molecule analogues in the presence of HLA-DQ2 expressing K562 cells serving as antigen presenting cells. TCR transductants cultured with no gliadin peptide served as the negative control, and incubation with an anti-CD3 antibody (eBioscience; clone 2C11) served as a positive control for the TCR transductant. Secreted IL-2 in the culture supernatant was measured using a highly sensitive enzyme-linked immunosorbent assay (ELISA). […] Assays for effects on cell viability and for specificity, assayed in the absence of gliadin peptide or in the presence of a stimulating anti-CD3 antibody, were performed. Unless otherwise noted, the stereochemistry shown below represents the relative configuration. Further, unless otherwise noted, compounds were tested as the trans racemate.

Chain of HLA-DQ2 (P01920 33-261 limits assumed, other chains not shown): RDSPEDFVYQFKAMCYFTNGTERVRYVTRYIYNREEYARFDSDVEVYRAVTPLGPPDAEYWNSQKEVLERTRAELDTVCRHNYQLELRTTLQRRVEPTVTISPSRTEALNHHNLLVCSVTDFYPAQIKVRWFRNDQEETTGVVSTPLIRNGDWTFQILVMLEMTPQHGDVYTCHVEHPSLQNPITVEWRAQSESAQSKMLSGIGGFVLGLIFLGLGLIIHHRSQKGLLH

% Inh at 200 uM | SMILES
A (A=≥75%) | O=C(CNC1CCCC1)N1CCN(C(=O)[C@H]2CC2c2ccccc2)CC1 (stereo partly shown) [Example 81]
B (B=50-74%) | O=C(COc1ccccc1F)N1CCN(C(=O)[C@@H]2C[C@H]2c2ccccc2)CC1 [Example 98]
D (D=0-24%) | O=C(O)CCCNCC(=O)N1CCN(C(=O)[C@@H]2C[C@H]2c2ccccc2)CC1 [Example 113]
C (C=25-49%) | O=C(COc1ccc(O)cc1)N1CCN(C(=O)[C@@H]2C[C@H]2c2ccccc2)CC1 [Example 95]
B (B=50-74%) | O=C(CSc1ccccc1O)N1CCN(C(=O)[C@@H]2C[C@H]2c2ccccc2)CC1 [Example 88]
B (B=50-74%) | O=C(O)c1ccc(SCC(=O)N2CCN(C(=O)[C@@H]3C[C@H]3c3ccccc3)CC2)cc1 [Example 104]
C (C=25-49%) | O=C(O)c1ccccc1OCC(=O)N1CCN(C(=O)[C@@H]2C[C@H]2c2ccccc2)CC1 [Example 97]
A (A=≥75%) | COC(=O)c1ccc(OCC(=O)N2CCN(C(=O)[C@@H]3C[C@H]3c3ccccc3)CC2)cc1 (relative stereo) [Example 106, Methyl 4-(2-oxo-2-(4-(trans-2-phenylcyclopropanecarbonyl)piperazin-1-yl)ethoxy) benzoate]
D (D=0-24%) | O=C(O)CCOCC(=O)N1CCN(C(=O)[C@@H]2C[C@H]2c2ccccc2)CC1 [Example 110]
B (B=50-74%) | O=C(COc1ccccc1O)N1CCN(C(=O)[C@@H]2C[C@H]2c2ccccc2)CC1 [Example 105]

Second part, the compound before the results:

SMILES | % Inh at 200 uM
O=C(COc1ccc(F)cc1)N1CCN(C(=O)C2CC2c2ccc3c(c2)OCO3)CC1 (stereo not shown) [Example 6] | A (A=≥75%)
O=C(CSc1ccc(F)cc1Cl)N1CCN(C(=O)[C@@H]2C[C@H]2c2ccccc2)CC1 (relative stereo) [Example 59, 2-((2-Chloro-4-fluorophenyl)thio)-1-(4-(trans-2-phenylcyclo-propanecarbonyl)piperazin-1-yl)ethanone] | C (C=25-49%)
O=C(CCS(=O)(=O)c1ccccc1)N1CCN(C(=O)C2CC2c2ccc3c(c2)OCO3)CC1 (stereo not shown) [Example 16] | A (A=≥75%)
COc1ccc(SCC(=O)N2CCN(C(=O)[C@@H]3C[C@H]3c3ccccc3)CC2)cc1 [Example 75] | B (B=50-74%)
O=C(CSc1ccc(O)cc1)N1CCN(C(=O)[C@@H]2C[C@H]2c2ccccc2)CC1 [Example 76] | C (C=25-49%)
O=C(c1ccco1)N1CCN(C(=O)C2CC2c2ccc3c(c2)OCO3)CC1 (stereo not shown) [Example 7] | B (B=50-74%)
CC(C)OCC(=O)N1CCN(C(=O)[C@@H]2C[C@H]2c2ccccc2)CC1 (relative stereo) [Example 44, 2-Isopropoxy-1-(4-(trans-2-phenylcyclopropanecarbonyl)piperazin-1-yl) ethanone] | C (C=25-49%)
Cc1noc(C)c1CCC(=O)N1CCN(C(=O)C2CC2c2ccc3c(c2)OCO3)CC1 (stereo not shown) [Example 15] | C (C=25-49%)
COc1ccccc1SCC(=O)N1CCN(C(=O)[C@@H]2C[C@H]2c2ccccc2)CC1 [Example 63] | B (B=50-74%)
O=C(CSc1ccccc1Cl)N1CCN(C(=O)[C@@H]2C[C@H]2c2ccccc2)CC1 (relative stereo) [Example 60, 2-((2-Chlorophenyl)thio)-1-(4-(trans-2-phenylcyclopropane-1-carbonyl)piperazin-1-yl) ethan-1-one] | B (B=50-74%)
Cc1cccc(SCC(=O)N2CCN(C(=O)[C@@H]3C[C@H]3c3ccccc3)CC2)c1 [Example 51] | A (A=≥75%)
O=C(CSC1CCCC1)N1CCN(C(=O)C2CC2c2cccs2)CC1 (stereo not shown) [Example 14] | A (A=≥75%)
Cc1ccc(SCC(=O)N2CCN(C(=O)[C@@H]3C[C@H]3c3ccccc3)CC2)cc1 [Example 53] | B (B=50-74%)
O=CNc1ccc(SCC(=O)N2CCN(C(=O)[C@@H]3C[C@H]3c3ccccc3)CC2)cc1 [Example 74] | B (B=50-74%)

Same assay, conditions: inhibition of IL-2 secretion, dose-response; tested as trans racemate unless otherwise noted; lines naming several Examples = stereoisomer mixture of those Examples

EC50 | SMILES
100 to 200 µM | COC(=O)c1ccc(OCC(=O)N2CCN(C(=O)[C@@H]3C[C@H]3c3ccccc3)CC2)cc1 (relative stereo) [Example 106, Methyl 4-(2-oxo-2-(4-(trans-2-phenylcyclopropanecarbonyl)piperazin-1-yl)ethoxy) benzoate]
